Experimental data as given in ChEMBL document CHEMBL1201862, “PubChem BioAssay data set” (2004).
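Test compounds were applied to cells in 96-well plates for 48 hours at 5 doses. At the GI50, growth is halved.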 Activity calls are given as the source filed them. Cut-off read from the data, not from the text of the source: active = GI50 up to about 1.1 µM and inactive = higher.

Legend:
Assay in all cases: inhibition of tumour cell growth, NCI panel, 48 h
[1] = system: U-251
[2] = system: LOX IMVI
[3] = system: COLO 205
[4] = system: OVCAR-8
[5] = system: SK-MEL-2
[6] = system: SNB-75
[7] = system: NCI-H23
[8] = system: SK-OV-3
[9] = system: MDA-MB-231
[10] = system: OVCAR-5
[11] = system: K562
[12] = system: BT-549
[13] = system: SR
[14] = system: HCT-15
[15] = system: M14
[16] = system: NCI-H226
[17] = system: RXF 393
[18] = system: KM12
[19] = system: CAKI-1
[20] = system: EKVX
[21] = system: DLD-1
[22] = system: HT-29
[23] = system: ACHN
[24] = system: UO-31
[25] = system: SK-MEL-5
[26] = system: MDA-N
[27] = system: T47D
[28] = system: CCRF-CEM
[29] = system: UACC-257
[30] = system: SF-268
[31] = system: PC-3
[32] = system: XF498
[33] = system: OVCAR-3
[34] = system: A549
[35] = system: HCT-116
[36] = system: NCI-H522
[37] = system: HL-60
[38] = system: SN12C
[39] = system: MCF7
[40] = system: NCI-H460
[41] = system: DMS-273
[42] = system: NCI/ADR-RES
[43] = system: KM-20L2
[44] = system: HCC 2998
[45] = system: SNB-78
[46] = system: SW-620
[47] = system: A498
[48] = system: MOLT-4
[49] = system: SNB-19
[50] = system: Hs-578T
[51] = system: IGROV-1
[52] = system: DU-145
[53] = system: Malme-3M
[54] = system: UACC-62
[55] = system: DMS-114
[56] = system: OVCAR-4
[57] = system: RPMI-8226
[58] = system: TK-10
[59] = system: SF-295
[60] = system: SK-MEL-28
[61] = system: HOP-92
[62] = system: M19-MEL
[63] = system: LXFL 529
[64] = system: SF-539
[65] = system: HOP-18
[66] = system: MDA-MB-435
[67] = system: 786-0
[68] = system: HOP-62

Q: With C=C(CN(C)C)C(=O)c1cc(C)ccc1C as the compound, how does the GI50 [1] read?
A: 15.7 µM (inactive)

Q: What about the GI50 [2] of the same compound?
A: 4.84 µM (inactive)

Q: What about the GI50 [3] of the same compound?
A: 1.58 µM (inactive)

Q: And the GI50 [4]?
A: 20.7 µM (inactive)

Q: And the GI50 [5]?
A: 16.9 µM (inactive)

Q: What about the GI50 [6] of the same compound?
A: 17.2 µM (inactive)

Q: What about the GI50 [7] of the same compound?
A: 11.4 µM (inactive)

Q: What about the GI50 [8] of the same compound?
A: 18.4 µM (inactive)

Q: What about the GI50 [9] of the same compound?
A: 8.83 µM (inactive)

Q: What about the GI50 [10] of the same compound?
A: 14.8 µM (inactive)

Q: What about the GI50 [11] of the same compound?
A: 0.791 µM (active)

Q: What about the GI50 [12] of the same compound?
A: 10.2 µM (inactive)

Q: And the GI50 [13]?
A: 0.726 µM (active)

Q: What about the GI50 [14] of the same compound?
A: 4.13 µM

Q: And the GI50 [15]?
A: 2.11 µM (inactive)

Q: What about the GI50 [16] of the same compound?
A: 13.2 µM (inactive)

Q: And the GI50 [17]?
A: 2.61 µM (inactive)

Q: And the GI50 [18]?
A: 18.6 µM (inactive)

Q: What about the GI50 [19] of the same compound?
A: 4.39 µM (inactive)

Q: What about the GI50 [20] of the same compound?
A: 26.2 µM (inactive)

Q: What about the GI50 [21] of the same compound?
A: 2.28 µM (inactive)

Q: And the GI50 [22]?
A: 11 µM (inactive)

Q: And the GI50 [23]?
A: 3.54 µM (inactive)

Q: What about the GI50 [24] of the same compound?
A: 6.87 µM (inactive)

Q: What about the GI50 [25] of the same compound?
A: 13.3 µM (inactive)

Q: What about the GI50 [26] of the same compound?
A: 6.84 µM (inactive)

Q: What about the GI50 [27] of the same compound?
A: 4.11 µM (inactive)

Q: And the GI50 [28]?
A: 0.345 µM (active)

Q: What about the GI50 [29] of the same compound?
A: 7.96 µM (inactive)

Q: And the GI50 [30]?
A: 20.3 µM (inactive)

Q: What about the GI50 [31] of the same compound?
A: 14.1 µM (inactive)

Q: And the GI50 [32]?
A: 17.9 µM (inactive)

Q: And the GI50 [33]?
A: 5.33 µM (inactive)

Q: And the GI50 [34]?
A: 19.7 µM (inactive)

Q: And the GI50 [35]?
A: 4.7 µM (inactive)

Q: And the GI50 [36]?
A: 0.843 µM (active)

Q: And the GI50 [37]?
A: 0.232 µM (active)

Q: And the GI50 [38]?
A: 15.6 µM (inactive)

Q: What about the GI50 [39] of the same compound?
A: 2.96 µM (inactive)

Q: What about the GI50 [40] of the same compound?
A: 19.9 µM (inactive)

Q: What about the GI50 [41] of the same compound?
A: 11.7 µM (inactive)

Q: What about the GI50 [42] of the same compound?
A: 18.3 µM (inactive)

Q: What about the GI50 [43] of the same compound?
A: 23 µM (inactive)

Q: And the GI50 [44]?
A: 15.8 µM (inactive)

Q: What about the GI50 [45] of the same compound?
A: 26.9 µM (inactive)

Q: What about the GI50 [46] of the same compound?
A: 1.82 µM (inactive)

Q: What about the GI50 [47] of the same compound?
A: 23.6 µM (inactive)

Q: And the GI50 [48]?
A: 0.371 µM (active)

Q: What about the GI50 [49] of the same compound?
A: 19.9 µM (inactive)

Q: And the GI50 [50]?
A: 28.7 µM (inactive)

Q: What about the GI50 [51] of the same compound?
A: 18 µM (inactive)

Q: What about the GI50 [52] of the same compound?
A: 14.4 µM (inactive)

Q: And the GI50 [53]?
A: 2.5 µM (inactive)

Q: What about the GI50 [54] of the same compound?
A: 10.5 µM (inactive)

Q: What about the GI50 [55] of the same compound?
A: 5.02 µM (inactive)

Q: What about the GI50 [56] of the same compound?
A: 9.75 µM (inactive)

Q: What about the GI50 [57] of the same compound?
A: 1.42 µM (inactive)

Q: And the GI50 [58]?
A: 8.95 µM (inactive)

Q: What about the GI50 [59] of the same compound?
A: 16.7 µM (inactive)

Q: What about the GI50 [60] of the same compound?
A: 9.1 µM (inactive)

Q: And the GI50 [61]?
A: 2.81 µM (inactive)

Q: What about the GI50 [62] of the same compound?
A: 4.81 µM (inactive)

Q: What about the GI50 [63] of the same compound?
A: 1.62 µM (inactive)

Q: What about the GI50 [64] of the same compound?
A: 8.91 µM (inactive)

Q: What about the GI50 [65] of the same compound?
A: 4.13 µM (inactive)

Q: And the GI50 [66]?
A: 8.45 µM (inactive)

Q: And the GI50 [67]?
A: 2.96 µM (inactive)

Q: What about the GI50 [68] of the same compound?
A: 18.7 µM (inactive)
